Reference: patent US20260257992A1, “AGONISTS OF SMALL HETERODIMER PARTNER FOR CANCER THERAPY” (THE BOARD OF TRUSTEES OF THE UNIVERSITY OF ILLINOIS, priority 2023, published 2026)

What was measured:
[1] = Aqueous solubility; type: physicochemical
[2] = test system: Treg abundance; experiment: In vivo model of immune tolerance to a chronic antigen
[3] = Low cellular toxicity screen; type: cell-based; parameters: key: ✓: using strict cutoffs with respect to DSHN for passing each metric; X: using strict cutoffs with respect to DSHN for passing each metric; details: pass/fail with respect to DSHN
Description: (§1) Development of a more efficacious NR0B2 agonist. While DSHN was a useful proof-of-concept small molecule, macrophages required high doses and chronic exposure for robust influences on subsequent Tregs expansion. […] Therefore, we synthesized several derivatives of DSHN and screened them using a reporter assay which makes use of the endogenous cholesterol homeostatic feedback loop, where FXR activation upregulates NR0B2, which then inhibits LXR and its normal induction of ABCA1. We then followed this screen with several others with stringent cutoffs: effect on endogenous ABCA1 and IL1β expression, reduction of Treg expansion in either macrophage or DC co-cultures, and low cellular toxicity (FIG. 5A, Table 4).
Resazurin cell viability assay. 20,000 cells were seeded into 96 well f-bottom, black plates (Corning Costar) and cell viability was measured using 100 μL resazurin per well at 0.3 mg/mL (Acros Organics). The fluorescence signal was quantified by plate reader (560 nm excitation/590 nm emission) at 2-3 h.

[4] = test system: IL1b mRNA; experiment: IL1b mRNA reduction in Raw cells; type: cell-based; parameters: key: ✓: using strict cutoffs with respect to DSHN for passing each metric; X: using strict cutoffs with respect to DSHN for passing each metric; details: pass/fail with respect to DSHN
Description: as §1

[5] = target: T1, NR0B2 (Homo sapiens, UniProt Q15466); experiment: ABCA1 reporter screen to identify NR0B2 agonists (HepG2); type: cell-based; parameters: key: ✓: using strict cutoffs with respect to DSHN for passing each metric; X: using strict cutoffs with respect to DSHN for passing each metric; details: HepG2, 50 μM test compound, 1 μM GW3965; pass/fail with respect to DSHN
T1 construct: a reporter assay which makes use of the endogenous cholesterol homeostatic feedback loop; endogenous in cells; host or cells: HepG2
T1 sequence (Q15466 1-257): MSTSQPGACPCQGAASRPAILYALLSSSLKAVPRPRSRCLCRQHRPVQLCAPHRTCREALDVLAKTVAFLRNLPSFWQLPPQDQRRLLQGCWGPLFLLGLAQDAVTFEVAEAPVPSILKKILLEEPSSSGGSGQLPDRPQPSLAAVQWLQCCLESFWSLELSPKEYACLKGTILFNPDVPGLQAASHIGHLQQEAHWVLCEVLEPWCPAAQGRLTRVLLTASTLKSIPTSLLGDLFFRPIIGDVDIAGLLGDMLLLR
Description: as §1
Screening to identify NR0B2 agonists. HepG2 cells were co-transfected with ABCA1 renilla reporter plasmid and TK-control firefly luciferase vector at 20:1 using Lipofectamine 3000 reagent according to manufacturer's instructions for 24 hrs. Afterwards, 7000 cells were seeded in to 384 well f-bottom, white plates (Greiner Bio-One). Test compounds were added to the plates in a final working volume of 30 μL (for a final concentration of 50 μM) in presence of DMSO or 1 μM GW3965 and incubated for 20-24 hrs at 37° C. Luciferase activity was measured using the Luc-Pair Duo-Luciferase HT Assay kit (GeneCopoeia, Rockville, MD, USA) by adding luciferase substrates sequentially following manufacturer instructions. Luminescence was measured with 2 s integration times in a microplate reader (BioTek Cytation 5), 15 min after adding each substrate. The addition of reagents to the microplates was timed at each step to match the reading time delays and reading sequence of the microplate reader.

[6] = test system: EMT6 metastatic lesions; experiment: EMT6 metastatic mammary cancer (intravenous graft); type: in vivo, mouse
Description: FIG. 7A-7I. DSHN-OMe reduces tumor and metastatic growth in murine models, in a myeloid cell-NR0B2 dependent manner. (A) E0771 cells were grafted into control mice (NR0B2^+/+; LysMCre^+) or mice where NR0B2 was knocked out in myeloid immune cells (NR0B2^fl/fl; LysMCre^+). 8 days post-graft, daily treatment with placebo or DSHN-OMe was initiated and subsequent tumor growth followed through time. Different letters denote statistical difference on the final measurement (day 21, 2-Way ANOVA followed by Šidák's post-hoc, N=5-8). (B) Waterfall plot illustration of data in (A) showing tumor volume at final day of measurement. Asterisk indicates significant difference (Chi-squared test, P<0.05). (C) Lewis Lung cells were grafted into control mice (NR0B2^+/+; LysMCre^+) or mice where NR0B2 was knocked out in myeloid immune cells (NR0B2^fl/fl; LysMCre^+). 10 days post-graft, daily treatment with placebo or DSHN-OMe was initiated and subsequent tumor growth followed through time. Different letters denote statistical difference on the final measurement (day 21, 2-Way ANOVA followed by Šidák's post-hoc, N=8-13). (D) Waterfall plot illustration of data in (C) showing tumor volume at final day of measurement. Asterisk indicates significant difference (Chi-squared test, P<0.05). (E) DSHN-OMe is an effective treatment against metastatic 4T1 mammary cancer growth. 4T1 cells were grafted intravenously, and lung metastatic lesions allowed to establish for 3d before treatment commenced. Metastatic burden through time is presented above the metastatic burden on the final day of imaging in the middle panel (N=12-17/group, mixed-effects model followed by Tukey's multiple comparison test). Representative luciferase images in the bottom panel. (F) DSHN-OMe is an effective treatment against metastatic EMT6 mammary cancer growth. EMT6 cells were grafted intravenously, and lung metastatic lesions allowed to establish for 3d. DSHN-OMe was administered on days 4, 5, 8, 9 and 10 post-graft. 11d post-graft lungs were imaged ex vivo for luciferase (N=15/group). (G) EMT6 metastatic lungs were assessed for Ki67 mRNA and (H) FOXP3 mRNA. (I) EMT6 metastatic lungs were assessed for CD8+ cytotoxic T cells (CD8+). Asterisks indicate statistically significant differences.
Metastatic breast cancer urgently requires new therapeutic approaches. Therefore, we tested the ability of DSHN-OMe to reduce the subsequent growth of established metastases. 4T1 cells were introduced intravenously and lesions allowed to establish for 3d. Since ICB has been approved for a subset of TNBC patients, we also included groups treated with αPDL1. […] We confirmed these findings using a different model of murine TNBC, EMT6. […]

Row | Compound | Aqueous solubility [1] | Treg abundance in vivo [2] | Low Toxicity [3] | IL1b mRNA reduction (Raw Cells) [4] | ABCA1 reporter screen [5] | EMT6 metastatic burden ([6]; lungs imaged ex vivo 11 d post-graft) | CD8+ cytotoxic T cells in EMT6 metastatic lungs ([6]; mouse, in vivo) | Foxp3 expression in EMT6 metastatic lungs ([6]; mouse, in vivo) | Ki67 mRNA in EMT6 metastatic lungs ([6]; mouse, in vivo)
1 | CCN(CC)S(=O)(=O)c1cccc2cc(C(=O)O)c(O)cc12 [DSHN, reference compound] | poor aqueous solubility | reduce Treg abundance |  |  |  |  |  |  | 
2 | CCN(CC)S(=O)(=O)c1cccc2cc(C(=O)OC)c(O)cc12 [DSHN-OMe, Methyl 5-(N,N-diethylsulfamoyl)-3-hydroxy-2-naphthoate] |  |  | ✓ | ✓ | ✓ | significantly reduced metastatic burden | increase in the relative abundance of CD8+ cytotoxic T cells | decreased Foxp3 expression | decreased
